Organism: Mus musculus
Assay: (§1) Evaluated for the inhibition of cell-free gelation in Ehrlich Ascites tumor extracts
Type: functional
Conditions: not given

Structure (SMILES)	ID50
CC(=O)OC1/C=C\C(C)(O)C(=O)C(C)C/C=C/C2C(O)C(CC#N)=C(C)C3C(Cc4ccccc4)NC(=O)C123 (configuration not stated)	7700 nM
CC(=O)OC1/C=C\C(C)(O)C(=O)C(C)C/C=C/C2C(O)C(Br)(CBr)C(C)C3C(Cc4ccccc4)NC(=O)C123 (configuration not stated)	4500 nM

Tested on: Ehrlich
Assay: as §1
Type: functional
Conditions: Mus musculus, read-out: ID50 (the source's name)

Structure (SMILES)	IC50
CC(=O)OC1/C=C\C(C)(O)C(=O)C(C)C/C=C/C2C(O)C(CBr)=C(C)C3C(Cc4ccccc4)NC(=O)C123 (configuration not stated)	740 nM
CC(=O)OC1/C=C\C(C)(O)C(=O)C(C)C/C=C/C2C(O)C(CN=[N+]=[N-])=C(C)C3C(Cc4ccccc4)NC(=O)C123 (configuration not stated)	880 nM
CC(=O)OC1/C=C\C(C)(O)C(=O)C(C)C/C=C/C2C(O)C(C)=C(C)C3C(Cc4ccccc4)NC(=O)C123 (configuration not stated)	350 nM
CC(=O)OC1/C=C\C(C)(O)C(=O)C(C)C/C=C/C2C(O)C(CI)=C(C)C3C(Cc4ccccc4)NC(=O)C123 (configuration not stated)	600 nM
C=C1C(C)C2C(Cc3ccccc3)NC(=O)C23C(OC(C)=O)/C=C\C(C)(O)C(=O)C(C)C/C=C/C3C1O (configuration not stated)	210 nM
